In article PMC3510433, “Adamantyl carboxamides and acetamides as potent human 11β-hydroxysteroid dehydrogenase type 1 inhibitors” (Bioorganic & Medicinal Chemistry, 2012):
Entries after “also recorded” stand apart in the source; their conditions may differ. Marks after values point to notes of the source that are not given here.

Columns and labels:
[1] = target: T1, human 11β-HSD1 (Homo sapiens, UniProt P28845); experiment: 11β-HSD1 inhibition, human HEK-293 cell based assay (SPA); conditions: for IC50: HEK-293 cells stably transfected with HSD11B1, mean of 3 measurements
T1 construct: expressed in transfected cells; host or cells: HEK-293 (human), stably transfected
Experimental: 11β-HSD1 inhibition was measured in intact human HEK-293 cells to reveal the true inhibitory activity. Differences in observed effects for different compounds may reflect combinatorial factors including the ability to penetrate the cell membrane, the stability within the cell and the binding ability to the enzyme.
The cell-based assays were conducted on the human HEK-293 cell line stably transfected with the HSD11B1 gene.[28] 11β-HSD1 activity was determined by measuring the amount of tritiated product formed using a scintillation proximity assay (SPA).
Cells were incubated in 96-well micro-plates in the presence of tritiated cortisone substrate and the assay plates contained internal high and low controls to allow calculation of percentage inhibition. Each well of a 96-well culture plate was seeded with human 11β-HSD1 overexpressed HEK293 cells in 100 μL medium. When the cells were 80% confluent, the medium was removed from each well then 100 μL of fresh, serum-free, medium containing ^3H-cortisone (22 nM) and test compound in 1% DMSO was added. The control wells were also dispensed. […] The plate was incubated at 37 °C for 2 h, after which 50 μL of medium was removed from each well and transferred to a microplate containing 100 μL of a pre-incubated mixture of anti-cortisol antibody and SPA bead. The mixture was incubated with gentle shaking until equilibrium was reached, before transferring to a scintillation counter to establish the enzyme activity in each sample.
The compounds were initially tested at a concentration of 1 μM. Those compounds showing over 70% inhibition of 11β-HSD1 at 1 μM were subjected to an IC50 measurement. A Merck compound 544 was used as the reference compound in the assay (IC50 = 50 ± 20 nM).[19] The IC50 values are reported as the mean value of 3 measurements with variance less than 20%. IC50 values were calculated from the dose-response curve using Microsoft Excel add-in XLfit with a Four Parameter Logistic nonlinear regression model.

[2] = target: T2, human cytochrome P450 1A2 (Homo sapiens, UniProt P05177); experiment: Inhibition of human cytochrome P450 1A2; type: in vitro ADME; conditions: for Percentage inhibition of 1A2: 10 μM; for IC50: mean value of two measurements
T2 sequence (P05177 1-516): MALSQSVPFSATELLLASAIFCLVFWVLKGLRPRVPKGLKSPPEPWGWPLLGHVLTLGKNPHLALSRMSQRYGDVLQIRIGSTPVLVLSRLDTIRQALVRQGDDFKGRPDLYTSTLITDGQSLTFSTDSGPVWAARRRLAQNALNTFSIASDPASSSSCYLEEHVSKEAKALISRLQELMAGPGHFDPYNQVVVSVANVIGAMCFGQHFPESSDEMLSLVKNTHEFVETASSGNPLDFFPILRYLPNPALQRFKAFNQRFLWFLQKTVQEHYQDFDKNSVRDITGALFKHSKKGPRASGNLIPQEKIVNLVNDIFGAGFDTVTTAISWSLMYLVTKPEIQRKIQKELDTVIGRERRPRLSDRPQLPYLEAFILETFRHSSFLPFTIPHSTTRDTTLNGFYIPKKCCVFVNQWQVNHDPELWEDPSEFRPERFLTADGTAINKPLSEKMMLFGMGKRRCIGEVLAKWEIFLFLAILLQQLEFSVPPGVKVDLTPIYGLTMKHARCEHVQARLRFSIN
Description: (§1) To identify potential problems with these compounds interfering with the metabolism of other drugs, compounds 3, 4, 15 and 41 were studied for their inhibition of the key human cytochrome P450 enzymes: 1A2, 2C9, 2C19, 2D6, 3A4-BFC (7-benzyloxy-4-(trifluoromethyl)coumarin) and 3A4-BQ (7-benzyloxyquinoline) (Table 6).

[3] = target: human cytochrome P450 2C9 (Homo sapiens, UniProt P11712); experiment: Inhibition of human cytochrome P450 2C9; type: in vitro ADME; conditions: for Percentage inhibition of 2C9: 10 μM; for IC50: mean value of two measurements
Description: as §1

[4] = target: human cytochrome P450 2C19 (Homo sapiens, UniProt P33261); experiment: Inhibition of human cytochrome P450 2C19; type: in vitro ADME; conditions: for Percentage inhibition of 2C19: 10 μM; for IC50: mean value of two measurements
Description: as §1

[5] = target: human cytochrome P450 2D6 (Homo sapiens, UniProt P10635); experiment: Inhibition of human cytochrome P450 2D6; type: in vitro ADME; conditions: for Percentage inhibition of 2D6: 10 μM; for IC50: mean value of two measurements
Description: as §1

[6] = target: human cytochrome P450 3A4-BFC (Homo sapiens, UniProt P08684); experiment: Inhibition of human cytochrome P450 3A4-BFC (7-benzyloxy-4-(trifluoromethyl)coumarin); type: in vitro ADME; conditions: mean value of two measurements
Description: as §1

[7] = target: human cytochrome P450 3A4-BQ (Homo sapiens, UniProt P08684); experiment: Inhibition of human cytochrome P450 3A4-BQ (7-benzyloxyquinoline); type: in vitro ADME; conditions: for Percentage inhibition of 3A4-BQ: 10 μM; for IC50: mean value of two measurements
Description: as §1

[8] = tested on: key human cytochrome P450 enzymes; experiment: Inhibition of the key human cytochrome P450 enzymes (panel, summary statements); type: in vitro ADME
Description: as §1

[9] = Stability in incubation with human liver microsomes; type: in vitro ADME; conditions: 37 °C, NADPH; for half-life: 40 min
Experimental: Potent inhibitors (3 and 15) were incubated at 37 °C for 40 min with human liver microsomes in the presence of the cofactor NADPH to evaluate their stability under such conditions. The remaining parent compound was measured using a HPLC method.

[10] = Membrane permeability, Caco-2 cell model; type: in vitro ADME; conditions: human, Caco-2; apical to basolateral, 20 μM
Description: (§2) Compound 3 was studied for its membrane permeability using the Caco-2 cell model.

[11] = tested on: Caco-2 cell model; experiment: Membrane permeability, Caco-2 cell model; type: in vitro ADME; conditions: Caco-2, 20 μM
Description: as §2

[12] = tested on: CYP 2CA (so in the source), CYP3A4; experiment: Inhibition of the key human cytochrome P450 enzymes (panel, summary statements); type: in vitro ADME; conditions: human; 2CA, 3A4-BFC and 3A4-BQ
Description: as §1

T1 sequence (P28845 whole entry): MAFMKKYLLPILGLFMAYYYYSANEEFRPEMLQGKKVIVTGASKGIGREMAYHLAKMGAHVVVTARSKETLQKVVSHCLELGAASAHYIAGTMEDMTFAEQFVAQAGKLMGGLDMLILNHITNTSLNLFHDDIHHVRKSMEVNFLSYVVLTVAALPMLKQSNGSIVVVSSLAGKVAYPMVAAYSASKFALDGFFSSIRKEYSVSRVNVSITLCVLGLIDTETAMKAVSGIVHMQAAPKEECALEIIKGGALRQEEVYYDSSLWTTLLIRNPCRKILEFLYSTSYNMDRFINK
Chain of human cytochrome P450 2C9 (P11712 whole entry): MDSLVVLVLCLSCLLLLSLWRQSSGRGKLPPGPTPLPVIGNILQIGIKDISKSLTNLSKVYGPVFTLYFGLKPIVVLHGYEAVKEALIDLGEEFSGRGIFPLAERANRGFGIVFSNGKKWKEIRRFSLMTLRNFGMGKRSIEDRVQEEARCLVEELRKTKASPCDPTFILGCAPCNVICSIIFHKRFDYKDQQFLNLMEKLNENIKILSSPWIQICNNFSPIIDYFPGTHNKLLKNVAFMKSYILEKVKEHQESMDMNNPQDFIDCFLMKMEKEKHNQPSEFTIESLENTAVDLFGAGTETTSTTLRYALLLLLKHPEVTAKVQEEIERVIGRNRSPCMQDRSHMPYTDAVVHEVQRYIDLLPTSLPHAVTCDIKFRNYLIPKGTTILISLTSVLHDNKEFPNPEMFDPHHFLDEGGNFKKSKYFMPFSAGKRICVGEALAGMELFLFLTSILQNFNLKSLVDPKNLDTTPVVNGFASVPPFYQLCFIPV
Chain of human cytochrome P450 2D6 (P10635 whole entry): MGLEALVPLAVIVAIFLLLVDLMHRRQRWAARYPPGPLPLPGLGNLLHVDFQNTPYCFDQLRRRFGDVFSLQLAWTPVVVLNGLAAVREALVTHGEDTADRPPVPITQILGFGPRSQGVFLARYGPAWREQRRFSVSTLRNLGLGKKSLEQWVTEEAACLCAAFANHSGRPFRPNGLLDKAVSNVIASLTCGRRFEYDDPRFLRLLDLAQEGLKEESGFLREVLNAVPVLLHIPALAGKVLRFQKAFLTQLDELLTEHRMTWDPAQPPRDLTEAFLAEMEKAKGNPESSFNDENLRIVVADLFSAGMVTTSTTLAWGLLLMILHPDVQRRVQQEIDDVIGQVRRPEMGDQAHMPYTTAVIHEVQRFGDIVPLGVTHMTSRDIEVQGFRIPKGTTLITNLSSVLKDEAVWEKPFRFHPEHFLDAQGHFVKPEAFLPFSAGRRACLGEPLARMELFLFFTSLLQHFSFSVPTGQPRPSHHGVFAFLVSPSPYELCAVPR
Chain of human cytochrome P450 2C19 (P33261 whole entry): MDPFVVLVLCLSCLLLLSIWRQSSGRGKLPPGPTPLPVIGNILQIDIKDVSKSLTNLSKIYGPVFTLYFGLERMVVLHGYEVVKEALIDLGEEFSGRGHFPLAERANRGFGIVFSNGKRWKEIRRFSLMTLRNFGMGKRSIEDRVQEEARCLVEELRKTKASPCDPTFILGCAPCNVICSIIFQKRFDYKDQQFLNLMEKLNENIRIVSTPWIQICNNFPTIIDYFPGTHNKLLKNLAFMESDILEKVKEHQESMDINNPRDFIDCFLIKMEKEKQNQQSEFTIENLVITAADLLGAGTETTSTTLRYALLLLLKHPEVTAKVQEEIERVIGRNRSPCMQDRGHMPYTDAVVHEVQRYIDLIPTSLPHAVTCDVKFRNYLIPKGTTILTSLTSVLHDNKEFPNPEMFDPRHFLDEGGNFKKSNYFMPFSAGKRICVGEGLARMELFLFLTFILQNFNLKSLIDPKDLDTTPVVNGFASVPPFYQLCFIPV
Chain of human cytochrome P450 3A4-BQ (P08684 whole entry): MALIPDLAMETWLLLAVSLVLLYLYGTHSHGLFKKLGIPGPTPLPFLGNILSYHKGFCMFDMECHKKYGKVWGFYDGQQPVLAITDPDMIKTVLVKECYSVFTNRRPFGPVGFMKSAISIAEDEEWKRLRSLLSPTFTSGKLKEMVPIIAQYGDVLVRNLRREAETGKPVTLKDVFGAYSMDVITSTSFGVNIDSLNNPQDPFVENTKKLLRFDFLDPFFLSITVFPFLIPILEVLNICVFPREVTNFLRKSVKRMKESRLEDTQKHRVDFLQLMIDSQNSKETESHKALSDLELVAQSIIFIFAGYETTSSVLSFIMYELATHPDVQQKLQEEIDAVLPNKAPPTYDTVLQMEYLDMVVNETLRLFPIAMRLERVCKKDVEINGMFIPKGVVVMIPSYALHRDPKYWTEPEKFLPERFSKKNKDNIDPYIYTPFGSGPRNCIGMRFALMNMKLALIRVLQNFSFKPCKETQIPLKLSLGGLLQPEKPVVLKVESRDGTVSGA
Chain of human cytochrome P450 3A4-BFC (P08684 whole entry): as above

SMILES | IC50 [1] [µM] | Percentage inhibition of 1A2 [2] [% ^a] | Percentage inhibition of 2C9 [3] [% ^a] | Percentage inhibition of 2C19 [4] [% ^a] | Percentage inhibition of 2D6 [5] [% ^a] | IC50 [6] [µM] | Percentage inhibition of 3A4-BQ [7] [% ^a] | activity against 2C9 and 3A4-BFC (in words) ([8]; 2C9 and 3A4-BFC) | half-life [9] [h] | stability with human liver microsomes (in words) [9] | Papp A→B at 20 μM [10] [×10⁻⁶ cm/s] | permeability (in words) [11] | fold more potent than compound 16 ([1]; N-methyl amide vs NH analogue 16) | IC50 [2] [µM] | IC50 [3] [µM] | IC50 [4] [µM] | IC50 [5] [µM] | IC50 [7] [µM] | inhibition of the key human cytochrome P450 enzymes (in words) ([8]; 1A2, 2C9, 2C19, 2D6, 3A4-BFC, 3A4-BQ) | IC50 [12] [µM]
CN(Cc1cccs1)C(=O)C12CC3CC(CC(C3)C1)C2 [Compound 3] | 0.229 | 6 | 62 | 13 | 2 | 10 | 34 | weak activity | 1 to 1.17 | moderately stable | 33 | high permeability | – | – | – | – | – | – | – | –
CN(Cc1cccs1)C(=O)CC12CC3CC(CC(C3)C1)C2 [Compound 4, 2-(Adamantan-1-yl)-N-methyl-N-(thiophen-2-ylmethyl)acetamide] | 0.308 | 1 | 49 | 80 | 9 | 0.15 | 66 | – | – | – | – | – | – | – | – | – | – | – | – | –
CN(Cc1cccn1C)C(=O)C12CC3CC(CC(C3)C1)C2 [Compound 15, N-Methyl-N-((1-methyl-1H-pyrrol-2-yl)-methyl)adamantane-1-carboxamide] | 0.114 | – | – | – | – | 19 | – | – | 1 to 1.17 | moderate stability; also recorded: moderately stable; also recorded: relatively stable | – | – | over 15 times | > 100 | > 100 | > 100 | > 100 | 18 | weak inhibitory activity; also recorded: very weak inhibition; also recorded: very weak inhibitory activity | –
Cc1ccc(C2(C(=O)N(C)Cc3cccs3)CC2)cc1 [Compound 41, N-Methyl-N-(thiophen-2-ylmethyl)-1-p-tolylcyclopropanecarboxamide] | 0.28 | – | – | – | – | 7.3 | – | – | – | – | – | – | – | > 100 | 4.5 | > 100 | 72 | 1.6 | – | 1.6 to 7.3
